Earlier results in patent US7858334B2, “Degradation of hydrophobic ester pesticides and toxins” (priority 2002, dated 2010).

CC1(C)C(C=C(Cl)Cl)C1C(=O)OCc1cccc(Oc2ccccc2)c1 (racemic) [permethrin, 3-phenoxybenzyl(1RS)-cis, trans-3-(2,2-dichlorovinyl)-2,2-dimethylcyclopropane carboxylate]
published solubility in aqueous solution: 0.5 µM
